The values below come from patent publication US8217065B2, “Organic compounds” (Novartis AG, priority 2007, dated 2012).

The target of the test is T1, human DGAT1 (Homo sapiens, UniProt O75907).
T1 construct: (His)6; made in house; host or cells: Sf9 insect cells (membrane preparation)
T1 sequence (O75907 1-488): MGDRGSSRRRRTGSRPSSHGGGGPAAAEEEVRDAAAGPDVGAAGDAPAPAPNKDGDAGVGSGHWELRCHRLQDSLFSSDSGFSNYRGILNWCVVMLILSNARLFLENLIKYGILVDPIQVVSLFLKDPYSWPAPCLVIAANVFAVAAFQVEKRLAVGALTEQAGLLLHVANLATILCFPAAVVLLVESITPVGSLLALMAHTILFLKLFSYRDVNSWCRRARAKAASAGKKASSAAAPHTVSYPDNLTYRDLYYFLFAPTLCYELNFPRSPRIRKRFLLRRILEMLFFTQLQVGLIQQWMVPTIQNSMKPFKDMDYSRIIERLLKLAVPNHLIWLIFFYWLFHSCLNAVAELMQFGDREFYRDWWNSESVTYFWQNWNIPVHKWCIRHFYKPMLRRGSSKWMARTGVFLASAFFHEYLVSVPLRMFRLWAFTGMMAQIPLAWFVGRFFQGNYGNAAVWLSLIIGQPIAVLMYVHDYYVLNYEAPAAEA
As to the kind of experiment: DGAT1 enzyme inhibition assay (Sf9 membrane preparation, LC/MS/MS readout). The format is biochemical. Particulars: membrane preparation from Sf9 cells overexpressing human (His)6DGAT1; 10-point, 3-fold dose response; read-out: IC50 (inhibitory activity to human DGAT1). As for the experimental part: The enzyme preparation used in this assay is a membrane preparation from Sf9 cells overexpressing human (His)6DGAT1. During all steps samples were chilled to 4° C. Sf9 cells expressing human (His)6DGAT1 were thawed at RT and re-suspended at a 10:1 ratio (mL buffer/g of cells) in 50 mM HEPES, 1× Complete Protease Inhibitor, pH 7.5. The re-suspended pellet was homogenized for 1 min using a Brinkman PT 10/35 homogenizer with a 20 mm generator. Cells were lysed using Avestin Emulsiflex (chilled to 4° C.) at 10000-15000 psi. Lysate was centrifuged at 100,000×g for 1 h at 4° C. Supernatant was removed and pellets were re-suspended in 50 mM HEPES, 1× Complete Protease Inhibitor, pH 7.5 at ⅙ the volume of supernatant. Re-suspended pellets were pooled and homogenized with 10 strokes of a Glas-Col motor driven teflon pestle on setting 70. The protein concentration of the membrane preparation was quantified using BCA protein assay with 1% SDS. The membrane preparation was aliquoted, frozen on dry ice, and stored at −80° C.
For 50 mL, 25 mL of 0.2 M HEPES stock buffer, 0.5 mL of 1 M MgCl2 (5 mM final concentration), and 24.5 mL of milli-Q H20 are added to the 55 mL Wheaton Potter-Elvehjem homogenizer. Enzyme preparation (0.1 mL) is added to buffer and the mixture is homogenized with 5 strokes on ice using the Glas-Col variable speed homogenizer system on setting 70.
For 50 mL, 0.5 mL 10 mM diolein is added to 9.5 mL of EtOH in a 50 mL Falcon screw cap conical centrifuge tube. Five mL of 10 mM sodium acetate pH 4.5 is added followed by 0.5 mL of 10 mM oleoyl-CoA. Finally, the remaining 4.5 mL of 10 mM sodium acetate pH 4.5 is added followed by 30 mL of milli-Q H2O. The solution should be gently agitated by hand to induce mixing. The final concentrations of EtOH and sodium acetate are 20% and 2 mM, respectively.
Dry compounds are dissolved in the appropriate volume of DMSO to a final concentration of 10 mM. A 10-point, 3-fold dose response is used to evaluate compound potency. All dilutions are performed in DMSO in a Greiner 384-well microplate. • 1. 2 μL of compound in DMSO is added to the appropriate wells. 2 μL of DMSO is added to 100% activity and 100% inhibition controls. • 2. 25 μL of enzyme mix is added to all wells and plate(s) are incubated for 10 min at RT. • 3. 10 μL of 20% acetic acid quench is added to 100% inhibition control wells. Plate(s) are vortexed using Troemner multi-tube vortexer (setting 7 for 10 sec). • 4. 25 μL of substrate mix is added to all wells. Plate(s) are vortexed using Troemner multi-tube vortexer (setting 7 for 10 sec). Plate(s) are incubated for 30 min at RT. • 5. 10 μL of 20% acetic acid quench is added to all wells. Plate(s) are vortexed using Troemner multi-tube vortexer (setting 7 for 10 sec). • 6. 50 μL of 1-butanol w/ glyceryl tripalmitoleate internal standard is added to all wells. • 7. Plate(s) are sealed with super pierce strong plate sealer using the thermo-sealer.
8. Plate(s) are vortexed using Troemner multi-tube vortexer (setting 10 for 5 min). • 9. Plate(s) are centrifuged at 162×g (1000 rpm for GH-3.8 rotor) for 5 min using Beckman GS-6R tabletop centrifuge.
Samples were analyzed by LC/MS/MS using a Waters 1525μ LC and Quattro Micro API MS. Where indicated, tripalmitolein was used as an internal standard to control for instrument variation.
Data is converted to % inhibition prior to curve fitting using the following equation: […]

Some results are limits rather than exact numbers.

Regarding `Cc1cc(CCC(=O)O)cc(C)c1-c1nc2ccc(-c3nnc(Nc4cccc(Cl)c4)o3)cc2[nH]1` [Example 1-59, 3-(4-{6-[5-(3-Chlorophenylamino)-[1,3,4]oxadiazol-2-yl]-1H-benzoimidazol-2-yl}-3,5-dimethylphenyl)-propionic acid], the IC50 amounted to 9 nM.

For `Cc1ccc(Nc2nnc(-c3ccc4nc(-c5c(Cl)cccc5Cl)[nH]c4c3)o2)cn1` [Example 1-38, {5-[2-(2,6-Dichloro-phenyl)-3H-benzoimidazol-5-yl]-[1,3,4]oxadiazol-2-yl}-(6-methyl-pyridin-3-yl)-amine], the IC50 is 54 nM.

`Clc1cccc(Cl)c1-c1nc2ccc(-c3nc(-c4ccccc4)c(-c4ccccc4)o3)cc2[nH]1` [Example 1-24, 2-(2,6-Dichloro-phenyl)-6-(4,5-diphenyl-oxazol-2-yl)-1H -benzoimidazole]: the IC50 is > 10000 nM.

Consider `Clc1cccc(Cl)c1-c1nc2ccc(-c3nnc(Nc4cccnc4)o3)cc2[nH]1` [Example 1-29, {5-[2-(2,6-Dichloro-phenyl)-3H-benzoimidazol-5-yl]-[1,3,4]oxadiazol-2-yl}-pyridin-3-yl-amine], for which the IC50 amounted to 400 nM.

For the compound `COc1ccc(-c2nnc(-c3ccc4nc(-c5c(C)cc(CC(C)(C)C(=O)O)cc5C)[nH]c4c3)o2)cc1` [Example 1-62, 3-(4-{5-[5-(4-Methoxy-phenyl)-[1,3,4]oxadiazol-2-yl]-1H-benzoimidazol-2-yl}-3,5-dimethyl-phenyl)-2,2-dimethyl-propionic acid], the IC50 is 15 nM.

Consider `Cc1cncc(-c2nnc(-c3ccc4nc(-c5c(Cl)cccc5Cl)[nH]c4c3)o2)c1` [Example 1-15, 2-(2,6-Dichloro-phenyl)-6-[5-(5-methyl-pyridin-3-yl)-[1,3,4]oxadiazol-2-yl]-1H-benzoimidazole], for which the IC50 was found to be 2300 nM.

On to `N#Cc1cccc(Nc2nnc(-c3ccc4nc(-c5c(Cl)cccc5Cl)[nH]c4c3)o2)c1` [Example 1-51, 3-{5-[2-(2,6-Dichloro-phenyl)-3H-benzoimidazol-5-yl]-[1,3,4]oxadiazol-2-ylamino}-benzonitrile], for which the half-maximal inhibitory concentration (IC50) came out at 310 nM.

On to `Clc1cccc(Cl)c1-c1nc2ccc(-c3nnc(N4CCCC4)o3)cc2[nH]1` [Example 1-34, 2-(2,6-Dichloro-phenyl)-6-(5-pyrrolidin-1-yl-[1,3,4]oxadiazol-2-yl)-1H-benzoimidazole], for which the IC50 was > 10000 nM.

Regarding `Cc1nc(-c2ccc3nc(-c4c(Cl)cccc4Cl)[nH]c3c2)oc1-c1ccc(Cl)cc1` [Example 1-25, 6-[5-(4-Chlorophenyl)-4-methyl-oxazol-2-yl]-2-(2,6-dichlorophenyl)-1H-benzoimidazole], the IC50 turned out to be 4700 nM.

As for `Clc1cc(Nc2nnc(-c3ccc4nc(-c5c(Cl)cccc5Cl)[nH]c4c3)o2)ccn1` [Example 1-43, (2-Chloro-pyridin-4-yl)-{5-[2-(2,6-dichloro-phenyl)-3H-benzoimidazol-5-yl]-[1,3,4]oxadiazol-2-yl}-amine], the IC50 stood at 80 nM.
